Source: ChEMBL document CHEMBL3885881, “DrugMatrix”

Species on record: Rattus norvegicus
Test: DrugMatrix - Regimen: Daily Repeat
Assay type: toxicity, organism-based, Sprague-Dawley
Parameters: regimen Daily Repeat, gender Male, age 6-8 weeks
Details: in vivo, po, route oral GAVAGE, vehicle .5 % CMC; for ABSOLUTE BASOPHIL / ABSOLUTE EOSINOPHIL / ABSOLUTE LYMPHOCYTE / ABSOLUTE MONOCYTE / ABSOLUTE SEGMENTED NEUTROPHIL / BASOPHIL / EOSINOPHIL / ERYTHROCYTE COUNT / HEMATOCRIT / HEMOGLOBIN / LEUKOCYTE COUNT / LYMPHOCYTE / MEAN CORPUSCULAR HEMOGLOBIN / MEAN CORPUSCULAR HEMOGLOBIN CONCENTRATION / MEAN CORPUSCULAR VOLUME / MONOCYTE / NEUTROPHIL / NUCLEATED RED BLOOD CELLS / PLATELET COUNT: tissue Blood; for ALANINE AMINOTRANSFERASE / ALBUMIN / ALKALINE PHOSPHATASE / ASPARTATE AMINOTRANSFERASE / BLOOD UREA NITROGEN / CARBON DIOXIDE / CHLORIDE / CHOLESTEROL / CREATINE PHOSPHOKINASE / CREATININE / GLUCOSE / LACTATE DEHYDROGENASE / LIPASE / PHOSPHORUS / POTASSIUM / SODIUM / TOTAL BILIRUBIN / TOTAL PROTEIN / URIC ACID: tissue Plasma
[1] = 12 mg/kg, 72 h, dose level High, time 3 day
[2] = 12 mg/kg, 120 h, dose level High, time 5 day
[3] = […], 72 h, dose 1.2 mg/Kg, dose level Low, time 3 day
[4] = […], 120 h, dose 1.2 mg/Kg, dose level Low, time 5 day

SMILES: N[C@@H](Cc1ccc(N(CCCl)CCCl)cc1)C(=O)O
- ABSOLUTE BASOPHIL [1]: 0 CELLS/uL
- ABSOLUTE EOSINOPHIL [1]: 202.33 CELLS/uL
- ABSOLUTE LYMPHOCYTE [1]: 10252.33 CELLS/uL
- ABSOLUTE MONOCYTE [1]: 0 CELLS/uL
- ABSOLUTE SEGMENTED NEUTROPHIL [1]: 1345.33 CELLS/uL
- BASOPHIL [1]: 0%
- EOSINOPHIL [1]: 1.67%
- ERYTHROCYTE COUNT [1]: 5.67 x10E6/uL
- HEMATOCRIT [1]: 35.43%
- HEMOGLOBIN [1]: 13.33 G/DL
- LEUKOCYTE COUNT [1]: 11.8 x10E3/uL
- LYMPHOCYTE [1]: 86.67%
- MEAN CORPUSCULAR HEMOGLOBIN [1]: 23.57 pg
- MEAN CORPUSCULAR HEMOGLOBIN CONCENTRATION [1]: 37.63 G/DL
- MEAN CORPUSCULAR VOLUME [1]: 62.57 fL
- MONOCYTE [1]: 0%
- NEUTROPHIL [1]: 11.67%
- NUCLEATED RED BLOOD CELLS [1]: 0 /100WBC
- PLATELET COUNT [1]: 1376 x10E3/uL
- ALANINE AMINOTRANSFERASE [1]: 52 u/L
- ALBUMIN [1]: 4.27 G/DL
- ALKALINE PHOSPHATASE [1]: 346 u/L
- ASPARTATE AMINOTRANSFERASE [1]: 88.33 u/L
- BLOOD UREA NITROGEN [1]: 15 mg/dL
- CARBON DIOXIDE [1]: 25.67 mmol/L
- CHLORIDE [1]: 108.33 MEQ/L
- CHOLESTEROL [1]: 69.67 mg/dL
- CREATINE PHOSPHOKINASE [1]: 205 u/L
- CREATININE [1]: 0.14 mg/dL
- GLUCOSE [1]: 177 mg/dL
- LACTATE DEHYDROGENASE [1]: 85.33 u/L
- LIPASE [1]: 8.33 u/L
- PHOSPHORUS [1]: 14 mg/dL
- POTASSIUM [1]: 6.75 MEQ/L
- SODIUM [1]: 147.33 MEQ/L
- TOTAL BILIRUBIN [1]: 0.17 mg/dL
- TOTAL PROTEIN [1]: 5.9 G/DL
- URIC ACID [1]: 1.93 mg/dL
- ABSOLUTE BASOPHIL [2]: 0 CELLS/uL
- ABSOLUTE EOSINOPHIL [2]: 270.33 CELLS/uL
- ABSOLUTE LYMPHOCYTE [2]: 13398.33 CELLS/uL
- ABSOLUTE MONOCYTE [2]: 0 CELLS/uL
- ABSOLUTE SEGMENTED NEUTROPHIL [2]: 1364.67 CELLS/uL
- BASOPHIL [2]: 0%
- EOSINOPHIL [2]: 1.67%
- ERYTHROCYTE COUNT [2]: 5.64 x10E6/uL
- HEMATOCRIT [2]: 35.4%
- HEMOGLOBIN [2]: 13.53 G/DL
- LEUKOCYTE COUNT [2]: 15.03 x10E3/uL
- LYMPHOCYTE [2]: 89.33%
- MEAN CORPUSCULAR HEMOGLOBIN [2]: 24.03 pg
- MEAN CORPUSCULAR HEMOGLOBIN CONCENTRATION [2]: 38.23 G/DL
- MEAN CORPUSCULAR VOLUME [2]: 62.83 fL
- MONOCYTE [2]: 0%
- NEUTROPHIL [2]: 9%
- NUCLEATED RED BLOOD CELLS [2]: 0 /100WBC
- PLATELET COUNT [2]: 1253 x10E3/uL
- ALANINE AMINOTRANSFERASE [2]: 43.33 u/L
- ALBUMIN [2]: 4.17 G/DL
- ALKALINE PHOSPHATASE [2]: 352 u/L
- ASPARTATE AMINOTRANSFERASE [2]: 75.67 u/L
- BLOOD UREA NITROGEN [2]: 16 mg/dL
- CARBON DIOXIDE [2]: 26.67 mmol/L
- CHLORIDE [2]: 101.67 MEQ/L
- CHOLESTEROL [2]: 68.67 mg/dL
- CREATINE PHOSPHOKINASE [2]: 312.67 u/L
- CREATININE [2]: 0.24 mg/dL
- GLUCOSE [2]: 170.67 mg/dL
- LACTATE DEHYDROGENASE [2]: 98.33 u/L
- LIPASE [2]: 8 u/L
- PHOSPHORUS [2]: 13.23 mg/dL
- POTASSIUM [2]: 6.07 MEQ/L
- SODIUM [2]: 145.27 MEQ/L
- TOTAL BILIRUBIN [2]: 0.2 mg/dL
- TOTAL PROTEIN [2]: 5.97 G/DL
- URIC ACID [2]: 1.5 mg/dL
- ABSOLUTE BASOPHIL [3]: 0 CELLS/uL
- ABSOLUTE EOSINOPHIL [3]: 212 CELLS/uL
- ABSOLUTE LYMPHOCYTE [3]: 11254.33 CELLS/uL
- ABSOLUTE MONOCYTE [3]: 0 CELLS/uL
- ABSOLUTE SEGMENTED NEUTROPHIL [3]: 1000.33 CELLS/uL
- BASOPHIL [3]: 0%
- EOSINOPHIL [3]: 1.67%
- ERYTHROCYTE COUNT [3]: 5.5 x10E6/uL
- HEMATOCRIT [3]: 35.4%
- HEMOGLOBIN [3]: 13.5 G/DL
- LEUKOCYTE COUNT [3]: 12.47 x10E3/uL
- LYMPHOCYTE [3]: 90.33%
- MEAN CORPUSCULAR HEMOGLOBIN [3]: 24.53 pg
- MEAN CORPUSCULAR HEMOGLOBIN CONCENTRATION [3]: 38.13 G/DL
- MEAN CORPUSCULAR VOLUME [3]: 64.3 fL
- MONOCYTE [3]: 0%
- NEUTROPHIL [3]: 8%
- NUCLEATED RED BLOOD CELLS [3]: 0 /100WBC
- PLATELET COUNT [3]: 1333.67 x10E3/uL
- ALANINE AMINOTRANSFERASE [3]: 50 u/L
- ALBUMIN [3]: 4.43 G/DL
- ALKALINE PHOSPHATASE [3]: 430.67 u/L
- ASPARTATE AMINOTRANSFERASE [3]: 84.33 u/L
- BLOOD UREA NITROGEN [3]: 15.67 mg/dL
- CARBON DIOXIDE [3]: 24 mmol/L
- CHLORIDE [3]: 105.67 MEQ/L
- CHOLESTEROL [3]: 66.67 mg/dL
- CREATINE PHOSPHOKINASE [3]: 180.33 u/L
- CREATININE [3]: 0.21 mg/dL
- GLUCOSE [3]: 171.33 mg/dL
- LACTATE DEHYDROGENASE [3]: 164 u/L
- LIPASE [3]: 8.33 u/L
- PHOSPHORUS [3]: 13.1 mg/dL
- POTASSIUM [3]: 6.13 MEQ/L
- SODIUM [3]: 147.47 MEQ/L
- TOTAL BILIRUBIN [3]: 0.2 mg/dL
- TOTAL PROTEIN [3]: 6.33 G/DL
- URIC ACID [3]: 2.23 mg/dL
- ABSOLUTE BASOPHIL [4]: 0 CELLS/uL
- ABSOLUTE EOSINOPHIL [4]: 46.67 CELLS/uL
- ABSOLUTE LYMPHOCYTE [4]: 6013.67 CELLS/uL
- ABSOLUTE MONOCYTE [4]: 20.33 CELLS/uL
- ABSOLUTE SEGMENTED NEUTROPHIL [4]: 619.33 CELLS/uL
- BASOPHIL [4]: 0%
- EOSINOPHIL [4]: 0.67%
- ERYTHROCYTE COUNT [4]: 5.37 x10E6/uL
- HEMATOCRIT [4]: 34.83%
- HEMOGLOBIN [4]: 13.07 G/DL
- LEUKOCYTE COUNT [4]: 6.7 x10E3/uL
- LYMPHOCYTE [4]: 89.67%
- MEAN CORPUSCULAR HEMOGLOBIN [4]: 24.33 pg
- MEAN CORPUSCULAR HEMOGLOBIN CONCENTRATION [4]: 37.53 G/DL
- MEAN CORPUSCULAR VOLUME [4]: 64.87 fL
- MONOCYTE [4]: 0.33%
- NEUTROPHIL [4]: 9.33%
- NUCLEATED RED BLOOD CELLS [4]: 0 /100WBC
- PLATELET COUNT [4]: 1151 x10E3/uL
- ALANINE AMINOTRANSFERASE [4]: 47 u/L
- ALBUMIN [4]: 4.33 G/DL
- ALKALINE PHOSPHATASE [4]: 273.67 u/L
- ASPARTATE AMINOTRANSFERASE [4]: 74.67 u/L
- BLOOD UREA NITROGEN [4]: 14.33 mg/dL
- CARBON DIOXIDE [4]: 29.33 mmol/L
- CHLORIDE [4]: 101.67 MEQ/L
- CHOLESTEROL [4]: 74.67 mg/dL
- CREATINE PHOSPHOKINASE [4]: 206 u/L
- CREATININE [4]: 0.18 mg/dL
- GLUCOSE [4]: 137 mg/dL
- LACTATE DEHYDROGENASE [4]: 89.33 u/L
- LIPASE [4]: 8.67 u/L
- PHOSPHORUS [4]: 11.6 mg/dL
- POTASSIUM [4]: 5.85 MEQ/L
- SODIUM [4]: 147.57 MEQ/L
- TOTAL BILIRUBIN [4]: 0.2 mg/dL
- TOTAL PROTEIN [4]: 6.17 G/DL
- URIC ACID [4]: 0.8 mg/dL
